These results are taken from ChEMBL document CHEMBL1142190, “Development of a new methodology for screening of human immunodeficiency virus type 1 microbicides based on real-time PCR quantification” (Antimicrob Agents Chemother, 2007).

SMILES strings stand for the structures.

Test [1] relates to Human immunodeficiency virus 1. Briefly: Inhibition of reverse transcriptase RTY18C mutant in HIV1 Z6gpt assessed as inhibition of ssDNA synthesis.
The target in test [2] is Human immunodeficiency virus type 1 reverse transcriptase (Human immunodeficiency virus 1) (UniProt Q72547). As to conditions: 10 uM.
Description: Inhibition of reverse transcriptase assessed as decrease in ssDNA level in cell free virion HIV1 by NERT-based real-time PCR at 10 uM

Usually inhibition stands for the relative decrease from the control value, in per cent. A higher inhibition goes with a strong effect. As to `Cc1ccnc2c1NC(=O)c1cccnc1N2C1CC1`, in test [1], the Activity is 256 µM. In test [2], this compound gave an inhibition of 75%.
